# Values of other authors as cited in patent US20140161813A1, “METHODS FOR THE DIAGNOSIS, TREATMENT AND MONITORING OF CANCER” (priority 2012, published 2014).
# Experiments:
# [1] = test system: spontaneous tumors in dogs (thyroid carcinoma, malignant peripheral nerve sheath tumor, anal gland adenocarcinoma, spinal meningioma)
# [2] = test system: human tumor 60 cell line screen; conditions: colon, ovarian and breast carcinomas and central nervous system tumors
substance,measurement,setting,value
nitrosylcobalamin [NO-Cbl],systemic or local toxicity,[1]; case study in dogs with spontaneous tumors,no evidence of systemic or local toxicity
same,dogs in which the tumor was completely eliminated,"[1]; extended follow-up, daily NO-Cbl treatment ranging in duration from 6 to 15 months",3 of 4
same,decrease in tumor size,"[1]; remaining 1 of 4 dogs, daily NO-Cbl treatment over the course of 6 months",77%
same,"antigrowth effects, tumor types most responsive",[2],"colon, ovarian and breast carcinomas as well as central nervous system tumors were most responsive"
